Measured values: patent publication US5281619A, “Therapy for diabetic complications” (Eli Lilly and Company, priority 1993, dated 1994)
One block for each compound: values may come before it.

Experiments:
[1] = test system: bovine retinal capillary endothelial cells; assay: Inhibition of phorbol ester-induced endothelial cell activation, plasminogen activator (PA) activity in cell lysates; type: cell-based; conditions: Bos taurus, 4-β PDBu (50 nM) activated cells, 48 hours
Source text: Retinal capillary endothelial cell cultures were initiated from bovine eyes using a modification of the procedure of Buzney et al., Investigative Ophthalmology and Visual Sciences, 24: 470-480 (1983). Bovine eyes were transported on ice from a local abattoir. Extraocular muscle was trimmed from the eye, and the eye bisected posterior to the ora serrata. The vitreous and anterior portion of the eye were discarded, and the neuro-retina was gently dissected from the posterior eyecup. The retinas from 20 cattle were pooled and homogenized (5 strokes of a Teflon/glass homogenizer) in Hank's saline. The homogenate was passed through a 350μ filter to remove large debris and a 210μ filter to remove large vessels. The microvessels were trapped on a 85μ filter. The microvessels were resuspended in Hank's saline and digested with 7.5 mg/ml bacterial collagenase (Boeringher Mannheim, Indianapolis) Hank's saline for 1 hour at 37° C. […]
(§1) The activation of bovine retinal capillary endothelial cells was monitored through alterations in cellular plasminogen activator (PA) activity in the cell lysates. Plasminogen activator activity was determined in a 50 μl aliquot of cell lysate using the synthetic substrate H-D-valyl-L-leucyl-lysine-p-nitroaniline dihydrochloride (Kabi).

[2] = test system: vasculature in streptozotocin-diabetic rats; assay: Microvascular dysfunction associated with streptozotocin-induced diabetes in rats (permeability and blood flow); type: in vivo, rat; conditions: 0.1% in diet, 4 to 7-week period
Procedure: Representative compounds were further evaluated for their ability to block the microvascular dysfunction associated with streptozotocin-induced diabetes. Rats were made diabetic with an injection of streptozotocin, and the rats were feed ad libitum with a diet containing 0.1% of a representative compound. Blood flow was measured through the use of radiolabeled microspheres while permeability was quantified using a dual label technique with iodinated albumin (^125 I/^131 I). Details of the model can be found in Tilton et al., Diabetes38: 1258-1270 (1989), and Williamson et al., J. Clin. Invest. 85: 1167-1172 (1990).
Blood flow also was elevated on induction of diabetes in these tissues. In contrast, vascular function was not affected in the brain or muscle.

[3] = test system: Glucose-Induced Vascular Dysfunction in Normal Rats; assay: Glucose-induced vascular dysfunction in rat granulation tissue chamber model (permeability and blood flow); type: in vivo; conditions: twice daily for 7 days, 30-35 mM glucose
Procedure: Representative compounds were evaluated in situ for their ability to block the increase in blood flow and permeability induced by high glucose in a rat tissue granulation tissue chamber model. In this model circles of skin were removed from the backs of normal rats and stainless steel screw-cap chambers were mounted. New granulation tissue formed within the chambers. Addition of 30-35 mM glucose (0.5 ml) twice daily to the chambers for 7 days induced a vascular dysfunction similar to that of diabetes--that is there was an increase in blood vessel permeability and an increase in blood flow. Blood flow was measured through the use of radiolabeled microspheres, and permeability was quantified using a dual label technique with iodinated albumin (^125 I/^131 I). Details of the model can be found in Tilton, et al., Diabetes38: 1258-1270 (1989). and Williamson, et al., J. Clin. Invest. 85: 1167-1172 (1990).
Representative compounds were dissolved in DMSO and diluted in a balanced salt solution to achieve a final concentration of 20 or 50 μM. The granulation chamber tissue was treated twice daily for 7 days to determine their effects on glucose-induced vascular dysfunction. Addition of 30-35 mM glucose to the granulation chamber induced a vascular dysfunction characterized by increased vessel permeability and increased blood flow.

[4] = test system: bovine retinal capillary endothelial cells; assay: Activation of bovine retinal capillary endothelial cells by phorbol esters (PA activity, cell number); type: cell-based; conditions: for increase in endothelial cell activation (in words): phorbol esters known to activate PKC vs. 4-α analogues
Source text: Retinal capillary endothelial cell cultures were initiated from bovine eyes using a modification of the procedure of Buzney et al., Investigative Ophthalmology and Visual Sciences, 24: 470-480 (1983). Bovine eyes were transported on ice from a local abattoir. Extraocular muscle was trimmed from the eye, and the eye bisected posterior to the ora serrata. The vitreous and anterior portion of the eye were discarded, and the neuro-retina was gently dissected from the posterior eyecup. The retinas from 20 cattle were pooled and homogenized (5 strokes of a Teflon/glass homogenizer) in Hank's saline. The homogenate was passed through a 350μ filter to remove large debris and a 210μ filter to remove large vessels. The microvessels were trapped on a 85μ filter. The microvessels were resuspended in Hank's saline and digested with 7.5 mg/ml bacterial collagenase (Boeringher Mannheim, Indianapolis) Hank's saline for 1 hour at 37° C. The cells were pelleted by centrifugation (100 xg, 10 min), resuspended in 5 ml Endothelial Growth Media (EGM, Clonetics) and seeded in a gelatin-coated T-25 flask. After 24 hours the cells were trypsinized and replated in a gelatin coated T225. At 7 days and again at 14 days the cultures were labeled with acetylated lipoproteins labeled with the fluorescent probe (1,1'-dioctadecyl-3,3,3,3,-tetramethyl-indocarbocyanine perchlorate). The endothelial cells were separated from contaminating cell types using a fluorescent cell sorter as described in Voyta et al., J. Cell Biology, 99: 2034-2040 (1984).
Retinal capillary endothelial cells were seeded into 96-well plates and grown to confluence (10^5 cells/well) in EGM containing 10% fetal bovine serum (FBS). The media was changed to Dubecco's Modified Eagle's Medium with 10% fetal bovine serum 24 hours prior to the assay. The cells were treated with 50 nM 4-β phorbol 12,13-dibutyrate (4-β PDBu) to activate PKC and produce the activated endothelial phenotype characteristic of the diabetic state. The activated cells were treated with a series of dilutions of the test compounds. The phorbol esters and the test compounds were dissolved in DMSO before adding to the culture media. The cultures were incubated at 37° C. for 48 hours. Following treatment, the cells were lysed with 25mM NH4 OH in 0.5% triton X-100.
as §1
Dose-response curves generated for 4-β PDBu and 4-β PMA indicated […] of 50 nM and 5 nM respectively. Elevated PA activity was observed only after prolonged (at least 8 hours) stimulation with phorbol esters. The PA activity continued to increase in a time and dose dependent manner for up to 72 hours, but constant stimulation with phorbol ester was required to maintain endothelial cell activation.

IC50 [1]: 25 nM
Structure (SMILES): N#CC1=C(N)Oc2c(ccc3ccccc23)C1c1cccc([N+](=O)[O-])c1 (stereo not shown) [Example 6, 2 Amino-4-(3-nitrophenyl)-4H-naphtho[1,2-b]pyran-3-carbonitrile]
development of increased permeability and blood flow (in words) [2]: prevented the development of increased permeability and blood flow | Permeability, Aorta ([2]; aorta, diabetic rats): 99.00 µg/g/min | Blood Flow, Brain ([2]; brain, diabetic rats): 0.88 mL/min/g | Permeability, Brain ([2]; brain, diabetic rats): 19.00 µg/g/min | Permeability, Muscle ([2]; muscle, diabetic rats): 63.00 µg/g/min | Blood Flow, Nerve ([2]; nerve, diabetic rats): 0.05 mL/min/g | Permeability, Nerve ([2]; nerve, diabetic rats): 63.00 µg/g/min | Blood Flow, Retina ([2]; retina, diabetic rats): 0.40 mL/min/g | Permeability, Retina ([2]; retina, diabetic rats): 59.00 µg/g/min | BSA Clearance ([3]; 20 μM): 179 µg/g/min | Blood Flow ([3]; 20 μM): 0.184 mL/g/min | BSA Clearance ([3]; 50 μM): 158 µg/g/min | Blood Flow ([3]; 50 μM): 0.168 mL/g/min

Structure (SMILES): CCCC(=O)OC1C(C)C2(O)C(C=C(CO)CC3(O)C(=O)C(C)=CC32)C2C(C)(C)C12OC(=O)CCC (stereo not drawn) [4-β PDBu, 4-β phorbol 12,13-dibutyrate]
increase in PA activity associated with the cell layer ([4]; confluent cells, 48 hours): 12 fold | increase in PA released into the media ([4]; confluent cells, 48 hours): 12 fold | increase in cell number ([4]; confluent cells, 48 hours): two fold increase in cell number | increase in endothelial cell activation (in words) [4]: increase in activation occurred

Structure (SMILES): CCCCCCCCCCCCCC(=O)OC1C(C)C2(O)C(C=C(CO)CC3(O)C(=O)C(C)=CC32)C2C(C)(C)C12OC(C)=O (stereo not drawn) [4-β PMA]
IC50 ([4]; Bos taurus, Endothelial cell, dose-response curves for phorbol esters): 5 nM | increase in endothelial cell activation (in words) [4]: increase in activation occurred

IC50 [1]: 500 nM
Structure (SMILES): N#CC1=C(N)Oc2c(ccc3ccccc23)C1c1ccccc1[N+](=O)[O-] (stereo not shown) [Example 5, 2-Amino-4-(2-nitrophenyl)-4H-naphtho[1,2-b]pyran-3-carbonitrile]
BSA Clearance ([3]; 20 μM): 163 µg/g/min | Blood Flow ([3]; 20 μM): 0.231 mL/g/min

Structure (SMILES): CCCC(=O)OC1C(C)C2(O)C(C=C(CO)CC3(O)C(=O)C(C)=CC32)C2C(C)(C)C12OC(=O)CCC (stereo not drawn) [4-α PDBu]
increase in endothelial cell activation (in words) [4]: not

Structure (SMILES): CCCCCCCCCCCCCC(=O)OC1C(C)C2(O)C(C=C(CO)CC3(O)C(=O)C(C)=CC32)C2C(C)(C)C12OC(C)=O (stereo not drawn) [4-α PMA]
increase in endothelial cell activation (in words) [4]: not
